Consider 19 molecules from US8039514B2, “Sulfonamide compounds and use thereof” (Asahi Kasei Pharma Corporation, priority 2008, dated 2011).

pIC50: −log10 of the molar value. Some results are limits rather than exact numbers.

The target of this test is T1, human calcium-sensing receptor (CaSR) (Homo sapiens, UniProt P41180).
T1 construct: expressed in transfected cells
T1 sequence (P41180 20-1078): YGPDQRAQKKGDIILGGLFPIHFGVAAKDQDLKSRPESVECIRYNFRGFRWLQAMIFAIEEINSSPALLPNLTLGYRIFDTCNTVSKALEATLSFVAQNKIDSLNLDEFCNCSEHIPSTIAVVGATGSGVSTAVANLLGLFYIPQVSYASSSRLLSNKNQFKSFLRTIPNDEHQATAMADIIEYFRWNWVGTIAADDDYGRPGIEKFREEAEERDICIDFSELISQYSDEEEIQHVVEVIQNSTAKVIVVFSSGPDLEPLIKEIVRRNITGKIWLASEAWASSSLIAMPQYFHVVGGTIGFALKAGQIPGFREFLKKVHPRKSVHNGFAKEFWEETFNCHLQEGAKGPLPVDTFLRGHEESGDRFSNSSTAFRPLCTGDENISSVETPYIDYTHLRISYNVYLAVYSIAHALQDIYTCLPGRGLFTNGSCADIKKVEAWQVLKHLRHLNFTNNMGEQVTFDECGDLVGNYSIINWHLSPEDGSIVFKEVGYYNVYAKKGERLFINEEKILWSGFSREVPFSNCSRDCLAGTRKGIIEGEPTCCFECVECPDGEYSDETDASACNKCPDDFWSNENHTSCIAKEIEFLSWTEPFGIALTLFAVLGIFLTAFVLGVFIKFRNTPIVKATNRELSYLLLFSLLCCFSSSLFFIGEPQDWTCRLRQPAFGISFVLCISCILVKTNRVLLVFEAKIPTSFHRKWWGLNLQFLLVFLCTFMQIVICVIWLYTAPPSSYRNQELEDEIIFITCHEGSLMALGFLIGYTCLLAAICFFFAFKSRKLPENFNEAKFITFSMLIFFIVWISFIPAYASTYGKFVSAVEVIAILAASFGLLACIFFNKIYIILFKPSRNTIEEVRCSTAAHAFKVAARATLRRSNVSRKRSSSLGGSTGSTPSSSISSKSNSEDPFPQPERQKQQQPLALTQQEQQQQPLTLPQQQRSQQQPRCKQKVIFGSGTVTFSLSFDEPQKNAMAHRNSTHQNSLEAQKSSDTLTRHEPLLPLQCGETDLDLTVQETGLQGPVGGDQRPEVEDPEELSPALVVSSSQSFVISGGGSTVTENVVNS
The test is described as follows: intracellular Ca assay, CaSR antagonist activity in HEK293/hCaSR cells. In kind it is cell-based. To be noted: Fura2-AM, inhibition of response to calcium chloride ligand solution, read-out: IC50 values according to the intracellular Ca assay (CaSR antagonist activity). The essentials: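 HEK293/hCaSR cells were loaded with Fura2-AM and pre-incubated with compound for 160 s at 37° C in HEPES buffer (pH 7.4, 0.8 mM CaCl2), then challenged with calcium ligand solution. Read-out was the peak 340/380 nm fluorescence ratio; inhibition is relative to no-compound (0%) and no-calcium-ligand (100%) controls.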
Turning to `CN(C[C@H](O)CNC(C)(C)Cc1ccc2ccccc2c1)S(=O)(=O)Cc1cccc(-c2ccc(C=CC(=O)O)cc2)c1` [Exp. 3-86, (R)-3-(3′-((N-(2-hydroxy-3-(2-methyl-1-(naphthalen-2-yl)propan-2-ylamino)propyl)-N-methylsulfamoyl)methyl)biphenyl-4-yl)acrylic acid], the pIC50 – broadly, −log10 of the IC50, conventionally taken in molar units – is 6.00 to 6.52. In the case of `CN(C[C@H](O)CNC(C)(C)Cc1ccc2ccccc2c1)S(=O)(=O)c1cccc(-c2ccc(C(=O)O)c(O)c2)c1` [Exp. 3-24, (R)-3-hydroxy-3′-(N-(2-hydroxy-3-(2-methyl-1-(naphthalen-2-yl)propan-2-ylamino)propyl)-N-methylsulfamoyl)biphenyl-4-carboxylic acid], the pIC50 is 6.00 to 6.52. To `CN(C[C@H](O)CNC(C)(C)CC1Cc2ccccc2C1)S(=O)(=O)c1c(Cl)cc(-c2cccc(C(=O)O)c2)cc1Cl` [Exp. 3-126, (R)-3′,5′-dichloro-4′-(N-(3-(1-(2,3-dihydro-1H-inden-2-yl)-2-methylpropan-2-ylamino)-2-hydroxypropyl)-N-methylsulfamoyl)biphenyl-3-carboxylic acid] belongs at least 6.52; to `CN(C[C@H](O)CNC(C)(C)Cc1ccc2ccccc2c1)S(=O)(=O)c1cccc(-c2ccc(C(=O)O)s2)c1` [Exp. 3-26, (R)-5-(3-(N-(2-hydroxy-3-(2-methyl-1-(naphthalen-2-yl)propan-2-ylamino)propyl)-N-methylsulfamoyl)phenyl)thiophen-2-carboxylic acid], 6.00 to 6.52; to `CN(C[C@H](O)CNC(C)(C)Cc1ccc2ccccc2c1)S(=O)(=O)c1cccc(-c2ccc(NCC(=O)O)cc2)c1` [Exp. 3-28, (R)-2-(3′-(N-(2-hydroxy-3-(2-methyl-1-(naphthalen-2-yl)propan-2-ylamino)propyl)-N-methylsulfamoyl)biphenyl-4-ylamino)acetic acid], 6.00 to 6.52. Turning to `CN(C[C@H](O)CNC(C)(C)Cc1ccc2ccccc2c1)S(=O)(=O)c1ccc(-c2ccc(SCC(=O)O)cc2)cc1` [Exp. 3-47, (R)-2-(4′-(N-(2-hydroxy-3-(2-methyl-1-(naphthalen-2-yl)propan-2-ylamino)propyl)-N-methylsulfamoyl)biphenyl-4-ylthio)acetic acid], the pIC50 is 6.00 to 6.52. To `CN(C[C@H](O)CNC(C)(C)CC1Cc2ccccc2C1)S(=O)(=O)c1ccc(-c2ccc(C(=O)O)nc2)c(C(F)(F)F)c1` [Exp. 3-231, (R)-5-(4-(N-(3-(1-(2,3-dihydro-1H-inden-2-yl)-2-methylpropan-2-ylamino)-2-hydroxypropyl)-N-methylsulfamoyl)-2-(trifluoromethyl)phenyl)picolinic acid] belongs at least 6.52; to `CN(C[C@H](O)CNC(C)(C)Cc1ccc2ccccc2c1)S(=O)(=O)c1cccc(-c2cc(F)cc(C(=O)O)c2)c1` [Exp. 3-23, (R)-5-fluoro-3′-(N-(2-hydroxy-3-(2-methyl-1-(naphthalen-2-yl)propan-2-ylamino)propyl)-N-methylsulfamoyl)biphenyl-3-carboxylic acid], at least 6.52; to `CN(C[C@H](O)CNC(C)(C)CC1Cc2ccccc2C1)S(=O)(=O)c1ccc(-c2ccc(C(=O)O)c(Cl)c2)cc1C(F)(F)F` [Exp. 3-213, (R)-3-chloro-4′-(N-(3-(1-(2,3-dihydro-1H-inden-2-yl)-2-methylpropan-2-ylamino)-2-hydroxypropyl)-N-methylsulfamoyl)-3′-(trifluoromethyl)biphenyl-4-carboxylic acid], at least 6.52. Consider `CN(C[C@H](O)CNC(C)(C)Cc1ccc2ccccc2c1)S(=O)(=O)c1cccc(-c2ccc(C=CC(=O)O)cc2)c1` [Exp. 3-14, (R)-3-(3′-(N-(2-hydroxy-3-(2-methyl-1-(naphthalen-2-yl)propan-2-ylamino)propyl)-N-methylsulfamoyl)biphenyl-4-yl)acrylic acid], for which the pIC50 was 6.00 to 6.52. On to `CN(C[C@H](O)CNC(C)(C)CC1Cc2ccccc2C1)S(=O)(=O)c1cc(-c2ccc(CCC(=O)O)s2)cc(C(F)(F)F)c1` [Exp. 8-1, (R)-3-(5-(3-(N-(3-(1-(2,3-dihydro-1H-inden-2-yl)-2-methylpropan-2-ylamino)-2-hydroxypropyl)-N-methylsulfamoyl)-5-(trifluoromethyl)phenyl)thiophen-2-yl)propionic acid], for which the pIC50 was at least 6.52. Consider `CN(C[C@H](O)CNC(C)(C)CC1Cc2ccccc2C1)S(=O)(=O)c1cccc(-c2cccc(C=CC(=O)O)c2)c1` [Exp. 3-58, (R)-3-(3′-(N-(3-(1-(2,3-dihydro-1H-inden-2-yl)-2-methylpropan-2-ylamino)-2-hydroxypropyl)-N-methylsulfamoyl)biphenyl-3-yl)acrylic acid], for which the pIC50 is at least 6.52.

On to `CN(C[C@H](O)CNC(C)(C)Cc1ccc2ccccc2c1)S(=O)(=O)c1cccc(-c2ccc(C(=O)O)cc2[N+](=O)[O-])c1` [Exp. 3-20, (R)-3′-(N-(2-hydroxy-3-(2-methyl-1-(naphthalen-2-yl)propan-2-ylamino)propyl)-N-methylsulfamoyl)-2-nitrobiphenyl-4-carboxylic acid], for which the pIC50 was 5.52 to 6.00. On to `CN(C[C@H](O)CNC(C)(C)Cc1ccc2ccccc2c1)S(=O)(=O)c1ccc(-c2ccc(C(=O)O)c(N)c2)cc1` [Exp. 3-34, (R)-3-amino-4′-(N-(2-hydroxy-3-(2-methyl-1-(naphthalen-2-yl)propan-2-ylamino)propyl)-N-methylsulfamoyl)biphenyl-4-carboxylic acid], for which the pIC50 was 5.52 to 6.00. Take `CN(C[C@H](O)CNC(C)(C)Cc1ccc2ccccc2c1)S(=O)(=O)c1ccc(-c2ccccc2C(=O)O)cc1` [Exp. 3-29, (R)-4′-(N-(2-hydroxy-3-(2-methyl-1-(naphthalen-2-yl)propan-2-ylamino)propyl)-N-methylsulfamoyl)biphenyl-2-carboxylic acid]: the pIC50 is 6.00 to 6.52. As to `Cc1ccc(CC(C)(C)NC[C@@H](O)CN(C)S(=O)(=O)c2cccc(-c3ccc(C(=O)O)cc3F)c2)cc1F` [Exp. 3-67, (R)-2-fluoro-3′-(N-(3-(1-(3-fluoro-4-methylphenyl)-2-methylpropan-2-ylamino)-2-hydroxypropyl)-N-methylsulfamoyl)biphenyl-4-carboxylic acid], the pIC50 was 6.00 to 6.52. As to `CN(C[C@H](O)CNC(C)(C)Cc1ccc2ccccc2c1)S(=O)(=O)Cc1ccc(-c2ccc(CCC(=O)O)cc2)cc1` [Exp. 3-90, (R)-3-(4′-((N-(2-hydroxy-3-(2-methyl-1-(naphthalen-2-yl)propan-2-ylamino)propyl)-N-methylsulfamoyl)methyl)biphenyl-4-yl)propionic acid], the pIC50 was 5.52 to 6.00. In the case of `CN(C[C@H](O)CNC(C)(C)CC1Cc2ccccc2C1)S(=O)(=O)c1cccc(-c2ccc(C=CC(=O)O)cc2)c1` [Exp. 3-56, (R)-3-(3′-(N-(3-(1-(2,3-dihydro-1H-inden-2-yl)-2-methylpropan-2-ylamino)-2-hydroxypropyl)-N-methylsulfamoyl)biphenyl-4-yl)acrylic acid], the pIC50 is 6.00 to 6.52. For `CN(C[C@H](O)CNC(C)(C)Cc1ccc2ccccc2c1)S(=O)(=O)Cc1cccc(-c2ccc(CCC(=O)O)cc2)c1` [Exp. 3-87, (R)-3-(3′-((N-(2-hydroxy-3-(2-methyl-1-(naphthalen-2-yl)propan-2-ylamino)propyl)-N-methylsulfamoyl)methyl)biphenyl-4-yl)propionic acid], the pIC50 was 5.52 to 6.00.
